Here are results for 1 compound from US8357833B2, “Corn plants and seed enhanced for asparagine and protein” (priority 2007, dated 2013).

In experiment [1] the target is T1, Zea mays asparagine synthetase Zm AsnS1 (SEQ ID NO: 2, encoded by SEQ ID NO: 1) (Zea mays, UniProt B4FFJ0).
T1 sequence (B4FFJ0 with tags, fused parts or gaps): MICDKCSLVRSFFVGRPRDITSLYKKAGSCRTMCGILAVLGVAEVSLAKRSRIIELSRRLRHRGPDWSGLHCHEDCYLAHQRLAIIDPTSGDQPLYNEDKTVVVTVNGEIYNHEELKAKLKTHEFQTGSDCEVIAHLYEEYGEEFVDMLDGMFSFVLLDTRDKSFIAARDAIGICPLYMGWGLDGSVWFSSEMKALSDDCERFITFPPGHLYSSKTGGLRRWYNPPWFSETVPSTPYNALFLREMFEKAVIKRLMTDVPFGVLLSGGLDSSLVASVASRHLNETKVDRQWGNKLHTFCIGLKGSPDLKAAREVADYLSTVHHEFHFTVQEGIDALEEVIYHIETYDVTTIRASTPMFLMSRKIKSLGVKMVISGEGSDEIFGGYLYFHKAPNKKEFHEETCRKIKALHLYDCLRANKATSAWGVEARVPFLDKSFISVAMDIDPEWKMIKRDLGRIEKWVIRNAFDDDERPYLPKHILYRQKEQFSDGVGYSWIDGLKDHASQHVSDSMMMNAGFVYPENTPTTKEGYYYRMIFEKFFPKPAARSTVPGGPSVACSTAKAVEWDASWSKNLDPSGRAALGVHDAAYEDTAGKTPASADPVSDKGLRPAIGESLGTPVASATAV
The experiment can be described thus: Kinetics of recombinant his-tagged, refolded maize asparagine synthetase AsnS1 (substrate titration, asparagine by HPLC). The format is biochemical. To be noted: 100 mM Hepes, pH 8.0, 10 mM MgCl2, read-out: Km(NH4^+). The protocol: The effect of expression of asparagine synthetase genes on asparagine synthetase activity was measured in transgenic events of pMON79706 and pMON92870. Frozen, ground leaf tissue was aliquoted (200-400 mg) into wells from a precooled 96 deep-well plate. Protein was extracted in Buffer A (100 mM Hepes-OH, pH 8.0, 0.1 mM EDTA, 10 mM MgCl2, 2 mM aspartate, 0.5 mM DTT, 67 mM mercaptoethanol, 20% (v/v) glycerol, 0.1 mM ATP, 1% (v/v) P9599 (Sigma Company), 25 mM KCl). A small amount of sand was added to each well. Buffer A was then added to the leaf tissue in the wells at a ratio of 4:1 (buffer:tissue). The plates were then agitated in a paint shaker for 2 min. to mix the sample and then centrifuged at 5000×g for 10 minutes. The supernatant (100-200 μL) was desalted in a 96-well macro spin plate (SNS S025L, The Nest Group Inc., Southboro, Mass.) equilibrated in buffer A. The supernatant was then either assayed immediately or frozen in liquid nitrogen and maintained at −80° C. until used. […] The mixture was then filtered to remove precipitate and asparagine was measured by HPLC. […]

Experiment [2] concerns the target T2, Zea mays asparagine synthetase Zm AsnS4 (SEQ ID NO: 51, encoded by SEQ ID NO: 50) (Zea mays, UniProt B5U8J9).
T2 construct: 588 aa
T2 sequence (B5U8J9 1-588): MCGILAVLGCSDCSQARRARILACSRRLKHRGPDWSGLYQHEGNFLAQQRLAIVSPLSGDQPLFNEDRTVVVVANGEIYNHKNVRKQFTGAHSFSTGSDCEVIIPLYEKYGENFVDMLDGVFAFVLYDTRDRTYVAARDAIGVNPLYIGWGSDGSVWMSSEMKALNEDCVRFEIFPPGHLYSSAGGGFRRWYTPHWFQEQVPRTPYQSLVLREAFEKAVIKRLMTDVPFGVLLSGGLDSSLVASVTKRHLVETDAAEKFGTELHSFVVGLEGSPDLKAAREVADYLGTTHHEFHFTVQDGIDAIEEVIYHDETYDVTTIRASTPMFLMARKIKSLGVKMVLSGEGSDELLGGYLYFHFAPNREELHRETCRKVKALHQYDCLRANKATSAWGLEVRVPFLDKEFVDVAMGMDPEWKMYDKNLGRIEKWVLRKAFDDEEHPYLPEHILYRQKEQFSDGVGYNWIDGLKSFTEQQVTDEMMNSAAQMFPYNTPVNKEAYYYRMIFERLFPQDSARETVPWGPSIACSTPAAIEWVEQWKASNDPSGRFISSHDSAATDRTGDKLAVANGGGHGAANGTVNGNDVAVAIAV
The experiment is described as follows: Kinetics of recombinant his-tagged, refolded maize asparagine synthetase AsnS4 (substrate titration, asparagine by HPLC). The class given is biochemical. To be noted: 100 mM Hepes, pH 8.0, 10 mM MgCl2, read-out: Km(NH4^+). The protocol:
The effect of expression of asparagine synthetase genes on asparagine synthetase activity was measured in transgenic events of pMON79706 and pMON92870. Frozen, ground leaf tissue was aliquoted (200-400 mg) into wells from a precooled 96 deep-well plate. Protein was extracted in Buffer A (100 mM Hepes-OH, pH 8.0, 0.1 mM EDTA, 10 mM MgCl2, 2 mM aspartate, 0.5 mM DTT, 67 mM mercaptoethanol, 20% (v/v) glycerol, 0.1 mM ATP, 1% (v/v) P9599 (Sigma Company), 25 mM KCl). A small amount of sand was added to each well. Buffer A was then added to the leaf tissue in the wells at a ratio of 4:1 (buffer:tissue). The plates were then agitated in a paint shaker for 2 min. to mix the sample and then centrifuged at 5000×g for 10 minutes. The supernatant (100-200 μL) was desalted in a 96-well macro spin plate (SNS S025L, The Nest Group Inc., Southboro, Mass.) equilibrated in buffer A. The supernatant was then either assayed immediately or frozen in liquid nitrogen and maintained at −80° C. until used. To assay asparagine synthetase activity, desalted protein extracts (10-50 μL) were added to wells containing 100 μL assay solution (100 mM Hepes, pH 8.0, 10 mM MgCl2, 2 mM aspartate, 5 mM DTT, 10 mM ATP, 1 mM amino(oxy)acetic acid (aspartate amino transferase inhibitor), 1 mM aspartic semialdehyde (asparaginase inhibitor). To start the reaction, glutamine (final concentration of 2 mM for standard assay) was added to the solution, which was then mixed. The assay mixture was then incubated for 1 to 2 hours. The reaction was then stopped by the addition of an equal volume of 20% (w/v) trichloroacetic acid. The mixture was then filtered to remove precipitate and asparagine was measured by HPLC. Sample size was increased from 0.5 μL to 2.5 μL for HPLC, excitation wavelength was reduced from 340 nm to 235 nm, and fluorimeter gain was increased from 10 to 13. […]

With `N` [NH4^+], the Km worked out at 9.9 mM in experiment [1] and 9 mM in experiment [2].
